{"source": "ChEMBL document CHEMBL6074689", "about": "(Eur J Med Chem, 2025)", "key": {"Acetylcholinesterase [1]": {"target": "T1, Acetylcholinesterase (Homo sapiens, UniProt P22303)", "T1 sequence (P22303 whole entry)": "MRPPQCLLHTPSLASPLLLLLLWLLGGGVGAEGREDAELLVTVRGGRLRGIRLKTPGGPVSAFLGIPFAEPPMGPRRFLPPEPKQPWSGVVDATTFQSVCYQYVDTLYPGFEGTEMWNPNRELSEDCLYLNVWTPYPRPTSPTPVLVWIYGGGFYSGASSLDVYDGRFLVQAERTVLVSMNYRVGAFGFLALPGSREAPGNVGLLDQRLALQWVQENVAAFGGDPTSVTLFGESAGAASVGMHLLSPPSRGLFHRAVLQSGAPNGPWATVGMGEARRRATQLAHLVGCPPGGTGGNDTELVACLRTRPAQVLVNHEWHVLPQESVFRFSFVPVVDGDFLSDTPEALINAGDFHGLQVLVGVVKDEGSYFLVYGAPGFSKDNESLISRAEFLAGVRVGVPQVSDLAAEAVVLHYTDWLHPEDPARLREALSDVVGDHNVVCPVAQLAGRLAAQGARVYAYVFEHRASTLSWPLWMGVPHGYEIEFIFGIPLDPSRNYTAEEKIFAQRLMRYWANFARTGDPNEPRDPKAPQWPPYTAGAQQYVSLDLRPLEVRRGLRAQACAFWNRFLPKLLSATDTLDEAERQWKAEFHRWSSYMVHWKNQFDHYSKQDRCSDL", "assay": "Inhibition of human recombinant AChE expressed in HEK293 cells using acetylthiocholine iodide as substrate preincubated with compound for 30 mins followed by substrate addition and measured after 30 mins by DTNB reagent based Ellman's method"}, "Cholinesterase": {"target": "Cholinesterase (Equus caballus, UniProt P81908)", "sequence (P81908 whole entry)": "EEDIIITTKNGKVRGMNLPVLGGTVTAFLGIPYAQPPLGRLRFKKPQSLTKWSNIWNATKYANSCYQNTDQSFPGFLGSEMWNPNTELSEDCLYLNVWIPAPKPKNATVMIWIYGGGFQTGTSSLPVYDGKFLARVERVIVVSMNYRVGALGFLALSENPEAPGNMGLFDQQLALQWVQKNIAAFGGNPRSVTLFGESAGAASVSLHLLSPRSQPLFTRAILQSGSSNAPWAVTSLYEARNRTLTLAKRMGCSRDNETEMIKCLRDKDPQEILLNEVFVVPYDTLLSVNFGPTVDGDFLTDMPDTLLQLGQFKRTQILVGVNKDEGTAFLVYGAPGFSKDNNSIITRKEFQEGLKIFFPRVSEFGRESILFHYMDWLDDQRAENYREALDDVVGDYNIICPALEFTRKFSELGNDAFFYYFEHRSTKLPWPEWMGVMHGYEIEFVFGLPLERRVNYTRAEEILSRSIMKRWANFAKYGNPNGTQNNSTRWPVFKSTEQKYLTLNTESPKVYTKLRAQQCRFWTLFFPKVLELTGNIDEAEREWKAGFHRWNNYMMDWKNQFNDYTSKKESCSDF", "assay": "Inhibition of equine serum BChE using acetylthiocholine iodide as substrate preincubated with compound for 30 mins followed by substrate addition and measured after 30 mins by DTNB reagent based Ellman's method"}, "Acetylcholinesterase [2]": {"target": "T1, Acetylcholinesterase", "assay": "Reversible binding affinity to human AChE using acetylthiocholine iodide as substrate assessed as equilibrium binding constant preincubated for 40 mins by DTNB reagent based Ellman's method"}, "[3]": {"target": "Cholinesterase (Equus caballus) (UniProt P81908)", "sequence (P81908 whole entry)": "as above", "assay": "Reversible binding affinity to equine serum BChE using acetylthiocholine iodide as substrate assessed as equilibrium binding constant preincubated for 40 mins by DTNB reagent based Ellman's method"}, "Acetylcholinesterase [4]": {"target": "T1, Acetylcholinesterase", "assay": "Reversible binding affinity to human AChE using acetylthiocholine iodide as substrate assessed as binding constant preincubated for 40 mins by DTNB reagent based Ellman's method"}, "[5]": {"target": "Cholinesterase (Equus caballus) (UniProt P81908)", "assay": "Reversible binding affinity to equine serum BChE using acetylthiocholine iodide as substrate assessed as binding constant preincubated for 40 mins by DTNB reagent based Ellman's method"}, "Acetylcholinesterase [6]": {"target": "T1, Acetylcholinesterase", "assay": "Displacement of propidium iodide from human AChE PAS assessed as reduction in fluorescence intensity at 5 uM incubated for 6 hrs by fluorescence based analysis relative to control", "parameters": "scale not given: the % may be the effect or the level left"}, "Acetylcholinesterase [7]": {"target": "T1, Acetylcholinesterase", "assay": "Displacement of propidium iodide from human AChE PAS assessed as reduction in fluorescence intensity at 0.1 uM incubated for 6 hrs by fluorescence based analysis relative to control", "parameters": "scale not given: the % may be the effect or the level left"}, "[8]": {"assay": "Antioxidant activity assessed as DPPH radical scavenging activity at 200 uM incubated for 30 mins relative to control", "assay_type": "functional"}, "PC-12 [9]": {"system": "PC-12", "assay": "Cytotoxicity against rat PC-12 cells assessed as cell viability upto 20 uM measured for 24 hrs by MTT assay", "assay_type": "toxicity, cell-based", "details": "pc-12, 24 h"}, "PC-12 [10]": {"system": "PC-12", "assay": "Neuroprotective activity against H2O2-induced oxidative stress in rat PC-12 cells assessed as cell viability at 1 to 20 uM preincubated with compound for 24 hrs and followed by H2O2 induction and measured after 24 hrs by MTT assay", "assay_type": "functional, cell-based", "details": "dose 1-20 µM, time 48.0 hrs"}, "PC-12 [11]": {"system": "PC-12", "assay": "Induction of apoptosis in rat PC-12 cells assessed as viable cells at 2.5 uM incubated for 24 hrs by Annexin V/PI staining based flow cytometry analysis (reference value: 82.8%)", "assay_type": "functional", "details": "read-out: Activity"}, "PC-12 [12]": {"system": "PC-12", "assay": "Induction of apoptosis in rat PC-12 cells assessed as viable cells at 10 uM incubated for 24 hrs by Annexin V/PI staining based flow cytometry analysis (reference value: 82.8%)", "assay_type": "functional", "details": "read-out: Activity"}, "PC-12 [13]": {"system": "PC-12", "assay": "Induction of apoptosis in rat PC-12 cells assessed as viable cells at 5 uM incubated for 24 hrs by Annexin V/PI staining based flow cytometry analysis (reference value: 82.8%)", "assay_type": "functional", "details": "read-out: Activity"}, "[14]": {"assay": "Toxicity in Drosophila melanogaster Oregon R-positive assessed as reduction in eclosed flies at 10 uM measured for 15 days relative to control", "parameters": "scale not given: the % may be the effect or the level left", "details": "360 h, time 15 day"}, "[15]": {"assay": "Acute toxicity in Swiss albino mouse assessed as body weight gain at 175 mg/kg, po administered for 14 days", "assay_type": "organism-based", "details": "in vivo, 336 h, time 14 day"}, "Drosophila melanogaster [16]": {"system": "Drosophila melanogaster", "assay": "Anti-alzheimer activity in ey-GAL4 driven UAS-amyloid beta (1 to 42) induced Drosophila melanogaster Oregon R-positive assessed as severe eye phenotype at 10 to 20 uM by Stereo zoom microscopic imaging analysis relative to control", "assay_type": "functional", "details": "dose 10-20 µM"}, "Drosophila melanogaster [17]": {"system": "Drosophila melanogaster", "assay": "Anti-alzheimer activity in ey-GAL4 driven UAS-amyloid beta (1 to 42) induced Drosophila melanogaster Oregon R-positive assessed as rescued eye phenotype at 10 to 20 uM by Stereo zoom microscopic imaging analysis relative to control", "assay_type": "functional", "details": "dose 10-20 µM"}, "Drosophila melanogaster [18]": {"system": "Drosophila melanogaster", "assay": "Anti-alzheimer activity in ey-GAL4 driven UAS-amyloid beta (1 to 42) induced Drosophila melanogaster Oregon R-positive assessed as mild eye phenotype at 10 uM by Stereo zoom microscopic imaging analysis relative to control", "assay_type": "functional"}, "Drosophila melanogaster [19]": {"system": "Drosophila melanogaster", "assay": "Anti-alzheimer activity in ey-GAL4 driven UAS-amyloid beta (1 to 42) induced Drosophila melanogaster Oregon R-positive assessed as severe eye phenotype at 10 uM by Stereo zoom microscopic imaging analysis relative to control", "assay_type": "functional"}, "Drosophila melanogaster [20]": {"system": "Drosophila melanogaster", "assay": "Anti-alzheimer activity in ey-GAL4 driven UAS-amyloid beta (1 to 42) induced Drosophila melanogaster Oregon R-positive assessed as mild eye phenotype at 40 uM by Stereo zoom microscopic imaging analysis relative to control", "assay_type": "functional"}, "Drosophila melanogaster [21]": {"system": "Drosophila melanogaster", "assay": "Anti-alzheimer activity in ey-GAL4 driven UAS-amyloid beta (1 to 42) induced Drosophila melanogaster Oregon R-positive assessed as severe eye phenotype at 40 uM by Stereo zoom microscopic imaging analysis relative to control", "assay_type": "functional"}, "Drosophila melanogaster [22]": {"system": "Drosophila melanogaster", "assay": "Anti-alzheimer activity in ey-GAL4 driven UAS-amyloid beta (1 to 42) induced Drosophila melanogaster Oregon R-positive assessed as rescued eye phenotype at 40 uM by Stereo zoom microscopic imaging analysis relative to control", "assay_type": "functional"}, "Drosophila melanogaster [23]": {"system": "Drosophila melanogaster", "assay": "Anti-alzheimer activity in ey-GAL4 driven UAS-amyloid beta (1 to 42) induced Drosophila melanogaster Oregon R-positive assessed as rescued eye phenotype at 50 uM by Stereo zoom microscopic imaging analysis relative to control", "assay_type": "functional"}, "Drosophila melanogaster [24]": {"system": "Drosophila melanogaster", "assay": "Inhibition of oxidative stress in y-GAL4 driven UAS-amyloid beta (1 to 42) induced Drosophila melanogaster Oregon R-positive assessed as reduction in ROS level at 10 to 20 uM incubated for 30 mins by H2DCFDA staining based analysis", "assay_type": "functional, organism-based", "details": "dose 10-20 µM"}, "[25]": {"assay": "Acute toxicity in Swiss albino mouse assessed as animal survival at 175 mg/kg, po administered for 14 days", "assay_type": "organism-based", "details": "in vivo, 336 h, time 14 day"}, "[26]": {"assay": "Acute toxicity in Swiss albino mouse assessed as abnormal behavior at 175 mg/kg, po administered for 14 days", "assay_type": "organism-based", "details": "in vivo, 336 h, time 14 day"}, "Mus musculus [27]": {"system": "Mus musculus", "assay": "Antialzheimer activity in scopolamine-induced Swiss albino mouse model assessed as decrease in escape latency at 0.3 to 0.5 mg/kg, po preincubated with compound for 30 mins followed by scopolamine induction and measured after 5 days by Morris water maze test", "assay_type": "functional, organism-based", "details": "dose 0.3-0.5 mg/kg, time 7230.0 min"}, "Mus musculus [28]": {"system": "Mus musculus", "assay": "Antialzheimer activity in scopolamine-induced Swiss albino mouse model assessed as improvement in memory retention by measuring time spent in platform quadrant at 0.3 to 0.5 mg/kg, po preincubated with compound for 30 mins followed by scopolamine induction and measured after 5 days by Morris water maze test", "assay_type": "functional, organism-based", "details": "dose 0.3-0.5 mg/kg, time 7230.0 min"}, "Mus musculus [29]": {"system": "Mus musculus", "assay": "Antioxidant activity against scopolamine-induced Swiss albino mouse model assessed as increase in SOD level at 0.3 to 0.5 mg/kg, po by absorbance based analysis", "assay_type": "functional, organism-based", "details": "dose 0.3-0.5 mg/kg"}, "Mus musculus [30]": {"system": "Mus musculus", "assay": "Antioxidant activity against scopolamine-induced Swiss albino mouse model assessed as increase in catalase level in brain at 0.3 to 0.5 mg/kg, po by absorbance based analysis", "assay_type": "functional, organism-based", "details": "dose 0.3-0.5 mg/kg"}, "Mus musculus [31]": {"system": "Mus musculus", "assay": "Neuroprotective activity against scopolamine-induced Swiss albino mouse model assessed as effect on GAP43 mRNA level at 0.3 to 0.5 mg/kg, po measured after 6 days by RT-PCR analysis", "assay_type": "functional, organism-based", "details": "dose 0.3-0.5 mg/kg, time 6.0 day"}, "Mus musculus [32]": {"system": "Mus musculus", "assay": "Neuroprotective activity against scopolamine-induced Swiss albino mouse model assessed as effect on PSD95 mRNA level at 0.3 to 0.5 mg/kg, po measured after 6 days by RT-PCR analysis", "assay_type": "functional, organism-based", "details": "dose 0.3-0.5 mg/kg, time 6.0 day"}}, "note": "Calls of active or inactive are those of the source. The rule behind the calls is not given here."}
{"compound": "C[C@@H](c1cccc(OC(=O)NCCc2c[nH]c3ccc(Cl)cc23)c1)N(C)C", "values": [{"measurement": "IC50", "setting": "Acetylcholinesterase [1]", "value": 7.97, "unit": "nM"}, {"measurement": "IC50", "setting": "Cholinesterase", "value": 0.79, "unit": "nM"}, {"measurement": "Kb", "setting": "Acetylcholinesterase [2]", "value": 0.196, "unit": "nM"}, {"measurement": "Kb", "setting": "[3]", "value": 0.13, "unit": "nM"}, {"measurement": "K", "setting": "Acetylcholinesterase [4]", "value": 0.041, "unit": "min⁻¹"}, {"measurement": "K", "setting": "[5]", "value": 0.035, "unit": "min⁻¹"}, {"measurement": "Activity", "setting": "Acetylcholinesterase [6]", "value": 21.9, "unit": "%"}, {"measurement": "Activity", "setting": "Acetylcholinesterase [7]", "value": 3.56, "unit": "%"}, {"measurement": "Activity", "setting": "[8]", "value": 38.9, "unit": "%"}, {"measurement": "Activity", "setting": "PC-12 [9]", "value": "Non-toxic"}, {"measurement": "Activity", "setting": "PC-12 [10]", "value": "Active"}, {"measurement": "viability at 2.5 µM", "setting": "PC-12 [11]", "value": 72.2, "unit": "%"}, {"measurement": "viability at 10 µM", "setting": "PC-12 [12]", "value": 55.3, "unit": "%"}, {"measurement": "viability at 5 µM", "setting": "PC-12 [13]", "value": 81.1, "unit": "%"}, {"measurement": "Activity", "setting": "[14]", "value": 108, "unit": "%"}, {"measurement": "Activity", "setting": "[15]", "value": "Non-toxic"}, {"measurement": "Activity", "setting": "Drosophila melanogaster [16]", "value": 20, "unit": "%"}, {"measurement": "Activity", "setting": "Drosophila melanogaster [17]", "value": 36, "unit": "%"}, {"measurement": "Activity", "setting": "Drosophila melanogaster [18]", "value": 36, "unit": "%"}, {"measurement": "Activity", "setting": "Drosophila melanogaster [19]", "value": 20, "unit": "%"}, {"measurement": "Activity", "setting": "Drosophila melanogaster [20]", "value": 43, "unit": "%"}, {"measurement": "Activity", "setting": "Drosophila melanogaster [21]", "value": 16, "unit": "%"}, {"measurement": "Activity", "setting": "Drosophila melanogaster [22]", "value": 40, "unit": "%"}, {"measurement": "Activity", "setting": "Drosophila melanogaster [23]", "value": 23, "unit": "%"}, {"measurement": "Activity", "setting": "Drosophila melanogaster [24]", "value": "Active"}, {"measurement": "Activity", "setting": "[25]", "value": "Non-toxic"}, {"measurement": "Activity", "setting": "[26]", "value": "Non-toxic"}, {"measurement": "Activity", "setting": "Mus musculus [27]", "value": "Active"}, {"measurement": "Activity", "setting": "Mus musculus [28]", "value": "Active"}, {"measurement": "Activity", "setting": "Mus musculus [29]", "value": "Active"}, {"measurement": "Activity", "setting": "Mus musculus [30]", "value": "Active"}, {"measurement": "Activity", "setting": "Mus musculus [31]", "value": "Active"}, {"measurement": "Activity", "setting": "Mus musculus [32]", "value": "Active"}]}
